Patent US7928238B2, “1,2,3,4-tetrahydro-quinoline derivatives as CETP inhibitors” (Janssen Pharmaceutica NV, priority 2006, dated 2011)
Several values for one entry are separate records, joined by “and”; a condition that tells them apart may be missing. Identical values can stand only once.

Molecular target: T1, CETP (Homo sapiens, UniProt P11597)
T1 construct: from tissue; host or cells: human plasma from normal volunteers
T1 sequence (P11597 18-493): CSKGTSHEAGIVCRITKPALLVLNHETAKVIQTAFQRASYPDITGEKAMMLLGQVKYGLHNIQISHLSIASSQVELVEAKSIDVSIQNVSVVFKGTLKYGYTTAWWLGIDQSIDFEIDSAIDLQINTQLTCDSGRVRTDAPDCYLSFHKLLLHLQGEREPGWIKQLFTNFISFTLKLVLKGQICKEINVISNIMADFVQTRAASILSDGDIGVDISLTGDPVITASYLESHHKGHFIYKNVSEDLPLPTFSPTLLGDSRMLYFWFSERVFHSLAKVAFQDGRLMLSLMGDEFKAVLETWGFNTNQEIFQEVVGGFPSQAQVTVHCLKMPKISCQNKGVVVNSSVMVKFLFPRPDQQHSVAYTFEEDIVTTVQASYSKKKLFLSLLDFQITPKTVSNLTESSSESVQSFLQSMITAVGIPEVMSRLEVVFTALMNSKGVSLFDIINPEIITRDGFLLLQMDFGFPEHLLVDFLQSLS
Test: CETP in vitro assay (Amersham kit TRKQ7005; modified protocol in human plasma, [3H]CE-HDL transfer)
Type: biochemical
Settings: for % Inhibition @ 1 μM / inhibition at 1 µM: 1 μM compound; for IC50: from plots of % control versus compound concentration; for inhibition at 1 µM: read-out: % Inhibition @ 1 μM
Procedure: The CETP inhibitory activity of the compounds was determined using a commercially available kit from Amersham Biosciences (Catalog #TRKQ7005).
Briefly, 80 μl of human plasma (obtained from normal volunteers), approximately 25 μg/ml (20 μl) of [^3H]CE-HDL (Amersham Biosciences from kit TRKQ7005) and 1 μl of compound dissolved in DMSO was incubated for at least 4 hrs at 37° C. and non-specific transfer was determined by incubating a corresponding plate at 4° C. (blank). After the incubation period, 10 μl of a solution of 1% Dextralip 50/0.5M MgCl2, pH 7.4 was added, vortexed and incubated at room temperature for 10 min. The plate was then centrifuged for 30 min at 10° C. at 300 rpm in a Sorvall RT6000B centrifuge. Fifty microliters of the supernatant was transferred to a Picoplate (Packard) containing 100 μl of Microscint 40 (Perkin Elmer) and mixed for 30 min using a plate mixer. The radioactivity was counted using a TopCount (Perkin Elmer) and the % control was determined in the samples using the following formula: % transfer relative to vehicle controls (% control)=[cpm blank−cpm test]/cpm blank/cpm control]×100. IC50s were calculated from plots of the % control versus compound concentration.

| SMILES | % Inhibition @ 1 μM | IC50 | inhibition at 1 µM [%] |
| --- | --- | --- | --- |
| OC(CN1c2cccc(-c3cccc(F)c3)c2CCC1c1cccc(OC(F)(F)C(F)F)c1)C(F)(F)F (stereo not drawn) [Compound 11, 1,1,1-Trifluoro-3-{5-(3-fluoro-phenyl)-2-[3-(1,1,2,2-tetrafluoro-ethoxy)-phenyl]-3,4-dihydro-2H-quinolin-1-yl}-propan-2-ol] | 101% and 99% and 79% | 70 nM and 95 nM and 187 nM |  |
| OC(CN1c2cccc(-c3ccc(C(F)(F)F)cc3)c2CCC1c1cccc(OC(F)(F)C(F)F)c1)C(F)(F)F (stereo not drawn) [Compound 4, 1,1,1-Trifluoro-3-[2-[3-(1,1,2,2-tetrafluoro-ethoxy)-phenyl]-5-(4-trifluoromethyl-phenyl)-3,4-dihydro-2H-quinolin-1-yl]-propan-2-ol] | 1% |  |  |
| CC(C)Oc1cccc(-c2cccc3c2CCC(c2cccc(OC(F)(F)C(F)F)c2)N3CC(O)C(F)(F)F)c1 (stereo not drawn) [Compound 68, 1,1,1-Trifluoro-3-{5-(3-isopropoxy-phenyl)-2-[3-(1,1,2,2-tetrafluoro-ethoxy)-phenyl]-3,4-dihydro-2H-quinolin-1-yl}-propan-2-ol] | 49% and 61% | 345 nM |  |
| N#Cc1cccc(-c2cccc3c2CCC(c2cccc(OC(F)(F)C(F)F)c2)N3CC(O)C(F)(F)F)c1 (stereo not drawn) [Compound 9, 3-[2-[3-(1,1,2,2-Tetrafluoro-ethoxy)-phenyl]-1-(3,3,3-trifluoro-2-hydroxy-propyl)-1,2,3,4-tetrahydro-quinolin-5-yl]-benzonitrile] | 82% and 85% | 177 nM and 293 nM |  |
| O=Cc1cccc(-c2cccc3c2CCC(c2cccc(OC(F)(F)C(F)F)c2)N3CC(O)C(F)(F)F)c1 (stereo not drawn) [Compound 63, 3-[2-[3-(1,1,2,2-Tetrafluoro-ethoxy)-phenyl]-1-(3,3,3-trifluoro-2-hydroxy-propyl)-1,2,3,4-tetrahydro-quinolin-5-yl]-benzaldehyde] |  |  | 39 |
| OC(CN1c2cccc(-c3cccs3)c2CCC1c1cccc(OC(F)(F)C(F)F)c1)C(F)(F)F (stereo not drawn) [Compound 75, 1,1,1-Trifluoro-3-{2-[3-(1,1,2,2-tetrafluoro-ethoxy)-phenyl]-5-thiophen-2-yl-3,4-dihydro-2H-quinolin-1-yl}-propan-2-ol] | 39% |  |  |
| O[C@H](CN1c2cccc(-c3cccc(OC(F)(F)F)c3)c2CC[C@@H]1c1cccc(OC(F)(F)C(F)F)c1)C(F)(F)F [Compound 79, (2R, αR)-3,4-Dihydro-2-[3-(1,1,2,2-tetrafluoroethoxy)phenyl]-5-[3-(trifluoromethoxy)phenyl]-α-(trifluoromethyl)-1(2H)-quinolineethanol] |  | > 3000 nM | 62 |
| OC(CN1c2cccc(-c3cccc(OC(F)(F)F)c3)c2CCC1C1CCCCC1)C(F)(F)F (stereo not drawn) [Compound 38, 3-[2-Cyclohexyl-5-(3-trifluoromethoxy-phenyl)-3,4-dihydro-2H-quinolin-1-yl]-1,1,1-trifluoro-propan-2-ol] | 2% |  |  |
| OC(CN1c2cccc(-c3cccc(OC(F)(F)F)c3)c2CCC1c1cccc(OC(F)(F)F)c1)C(F)(F)F (stereo not drawn) [Compound 32, 3-[2,5-Bis-(3-trifluoromethoxy-phenyl)-3,4-dihydro-2H-quinolin-1-yl]-1,1,1-trifluoro-propan-2-ol] | 34% |  |  |
| OC(CN1c2cccc(-c3cccc(OC(F)(F)F)c3)c2CCC1c1cccc(Cl)c1)C(F)(F)F (stereo not drawn) [Compound 30, 3-[2-(3-Chloro-phenyl)-5-(3-trifluoromethoxy-phenyl)-3,4-dihydro-2H-quinolin-1-yl]-1,1,1-trifluoro-propan-2-ol] | 13% |  |  |
| C[C@@H](O)CN1c2cccc(-c3cccc(OC(F)(F)F)c3)c2CC[C@@H]1c1cccc(OC(F)(F)F)c1 [Compound 53] | 57% and 77% and 84% | 90 nM and 199 nM and 85 nM |  |
| OC(CN1c2cccc(-c3cccc(OC(F)(F)F)c3)c2CCC1c1cccc(OC(F)(F)F)c1)C(F)(F)F (stereo not drawn) [Compound 31, 3-[2,5-Bis-(3-trifluoromethoxy-phenyl)-3,4-dihydro-2H-quinolin-1-yl]-1,1,1-trifluoro-propan-2-ol] | 77% and 72% and 67% and 66% and 62% | 150 nM and 100 nM |  |
| OC(CN1c2cccc(-c3cccc(OC(F)(F)F)c3)c2CCC1c1ccccc1)C(F)(F)F (stereo not drawn) [Compound 19, 1,1,1-Trifluoro-3-[2-phenyl-5-(3-trifluoromethoxy-phenyl)-3,4-dihydro-2H-quinolin-1-yl]-propan-2-ol] | 21% |  |  |
| OC(CF)CN1c2cccc(-c3cccc(OC(F)(F)F)c3)c2CCC1c1cccc(OC(F)(F)F)c1 (stereo not drawn) [Compound 49, 1-[2,5-Bis-(3-trifluoromethoxy-phenyl)-3,4-dihydro-2H-quinolin-1-yl]-3-fluoro-propan-2-ol] | 63% and 77% | 331 nM |  |
| OC(CN1c2cccc(-c3cccc(OC(F)(F)F)c3)c2CCC1c1ccccc1OC(F)(F)C(F)F)C(F)(F)F (stereo not drawn) [Compound 89, 1,1,1-Trifluoro-3-[2-[2-(1,1,2,2-tetrafluoro-ethoxy)-phenyl]-5-(3-trifluoromethoxy-phenyl)-3,4-dihydro-2H-quinolin-1-yl]-propan-2-ol] | 9% |  |  |
| OC(CN1c2cccc(-c3cccc(F)c3)c2CCC1c1cccc(OC(F)(F)C(F)F)c1)C(F)(F)F (stereo not drawn) [Compound 12, 1,1,1-Trifluoro-3-{5-(3-fluoro-phenyl)-2-[3-(1,1,2,2-tetrafluoro-ethoxy)-phenyl]-3,4-dihydro-2H-quinolin-1-yl}-propan-2-ol] | 41% and 64% |  |  |
| OC(CN1c2cccc(-c3cccc(OC(F)(F)F)c3)c2CCC1c1cccs1)C(F)(F)F (stereo not drawn) [Compound 34, 1,1,1-Trifluoro-3-[2-thiophen-2-yl-5-(3-trifluoromethoxy-phenyl)-3,4-dihydro-2H-quinolin-1-yl]-propan-2-ol] | 12% |  |  |
| C[C@@H](O)CN1c2cccc(-c3cccc(Cl)c3)c2CC[C@H]1c1cccc(OC(F)(F)F)c1 [Compound 41] |  |  | 3 |
| O[C@@H](CN1c2cccc(-c3cccc(OC(F)(F)F)c3)c2CC[C@H]1c1cccc(OC(F)(F)C(F)F)c1)C(F)(F)F [Compound 80, (2S, αS)-3,4-Dihydro-2-[3-(1,1,2,2-tetrafluoroethoxy)phenyl]-5-[3-(trifluoromethoxy)phenyl]-α-(trifluoromethyl)-1(2H)-quinolineethanol] |  |  | 20 |
| Oc1cccc(-c2cccc3c2CCC(c2cccc(OC(F)(F)C(F)F)c2)N3CC(O)C(F)(F)F)c1 (stereo not drawn) [Compound 42, 3-[2-[3-(1,1,2,2-Tetrafluoro-ethoxy)-phenyl]-1-(3,3,3-trifluoro-2-hydroxy-propyl)-1,2,3,4-tetrahydro-quinolin-5-yl]-phenol] | 97% and 106% | 231 nM |  |
| OC(CN1c2cccc(-c3ccc(OC(F)(F)F)cc3)c2CCC1c1cccc(OC(F)(F)C(F)F)c1)C(F)(F)F (stereo not drawn) [Compound 8, 1,1,1-Trifluoro-3-[2-[3-(1,1,2,2-tetrafluoro-ethoxy)-phenyl]-5-(4-trifluoromethoxy-phenyl)-3,4-dihydro-2H-quinolin-1-yl]-propan-2-ol] | 29% and 36% |  |  |
| COc1cccc(-c2cccc3c2CC[C@H](c2cccc(OC(F)(F)F)c2)N3C[C@H](O)C(F)(F)F)c1 [Compound 59] |  |  | 30 |
| N#Cc1cccc(C2CCc3c(-c4cccc(OC(F)(F)F)c4)cccc3N2CC(O)C(F)(F)F)c1 (stereo not drawn) [Compound 28, 3-[1-(3,3,3-Trifluoro-2-hydroxy-propyl)-5-(3-trifluoromethoxy-phenyl)-1,2,3,4-tetrahydro-quinolin-2-yl]-benzonitrile] | 25% |  |  |
| CC(C)C(O)CN1c2cccc(-c3cccc(OC(F)(F)F)c3)c2CCC1c1cccc(OC(F)(F)F)c1 (stereo not drawn) [Compound 46, 1-[2,5-Bis-(3-trifluoromethoxy-phenyl)-3,4-dihydro-2H-quinolin-1-yl]-3-methyl-butan-2-ol] | 22% |  |  |
| CCC1CCc2c(-c3cccc(OC(F)(F)F)c3)cccc2N1CC(O)C(F)(F)F (stereo not drawn) [Compound 35, 3-[2-Ethyl-5-(3-trifluoromethoxy-phenyl)-3,4-dihydro-2H-quinolin-1-yl]-1,1,1-trifluoro-propan-2-ol] | 43% and 45% |  |  |
| OC(CCl)CN1c2cccc(-c3cccc(OC(F)(F)F)c3)c2CCC1c1cccc(OC(F)(F)F)c1 (stereo not drawn) [Compound 47, 1-[2,5-Bis-(3-trifluoromethoxy-phenyl)-3,4-dihydro-2H-quinolin-1-yl]-3-chloro-propan-2-ol] | 68% and 44% | 744 nM |  |
| OC(CN1c2cccc(-c3cccc(OC(F)(F)F)c3)c2CCC1c1cccc(F)c1)C(F)(F)F (stereo not drawn) [Compound 23, 1,1,1-Trifluoro-3-[2-(3-fluoro-phenyl)-5-(3-trifluoromethoxy-phenyl)-3,4-dihydro-2H-quinolin-1-yl]-propan-2-ol] | 33% |  |  |
